Target: lymphocyte-specific protein tyrosine kinase (LCK) (Homo sapiens, UniProt P06239)
Experiment: ADP-Glo kinase assay; also fluorescence increase at […] nm on binding LCK after decaging of 3e, reversed by TC-S7003
Assay type: biochemical

lymphocyte-specific protein tyrosine kinase (LCK), sequence (P06239 2-509): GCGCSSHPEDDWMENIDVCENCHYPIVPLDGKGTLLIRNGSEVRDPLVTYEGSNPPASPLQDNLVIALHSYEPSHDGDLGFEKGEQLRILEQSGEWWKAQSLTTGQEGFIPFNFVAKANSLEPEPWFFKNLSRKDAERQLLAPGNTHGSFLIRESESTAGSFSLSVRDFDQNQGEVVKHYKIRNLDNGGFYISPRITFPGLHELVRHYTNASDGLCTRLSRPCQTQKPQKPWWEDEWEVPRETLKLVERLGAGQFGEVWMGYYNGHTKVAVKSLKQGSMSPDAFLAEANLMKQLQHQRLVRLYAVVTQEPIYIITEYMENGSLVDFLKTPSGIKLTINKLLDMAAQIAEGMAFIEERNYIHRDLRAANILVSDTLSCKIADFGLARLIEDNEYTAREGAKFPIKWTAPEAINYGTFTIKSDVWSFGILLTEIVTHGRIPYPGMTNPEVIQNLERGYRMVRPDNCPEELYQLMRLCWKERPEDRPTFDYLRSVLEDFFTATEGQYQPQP

- IC50: 2400 nM
Compound: CC(C)n1nc(C#Cc2ccc3cc(N(C)C)ccc3c2)c2c(N)ncnc21 [compound 1, LCK inhibitor 1]

Reference: paper PMC11077529, “All-photonic kinase inhibitors: light-controlled release-and-report inhibition” (Chemical Science, 2024)
